Data published in patent publication US5238838A (Degussa Aktiengesellschaft, priority 1991, dated 1993).
Values joined by “and” are separate entries in the source; they are usually repeats but may differ in a detail not shown here. Identical values can stand only once. “Also recorded” adds a separate entry of the source. Counter-ions that a name gives are not always drawn. Like-named read-outs stand apart in the source and are kept apart here. Where a SMILES comes first, the peptide text is derived from it.

Legend:
L-carnitine amidase [1] = tested on: L-carnitine amidase;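 further: additives put into the enzyme mixture before substrate, reaction then initiated by substrate addition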
Description: In order to test the influence of various additives on the enzyme activity, they were added to the test batches without substrate in a final concentration of 1 mM and 10 mM in each instance. The reaction batches were first incubated for 45 min. at 30° C. before the reaction was started by adding substrate solution.

L-carnitine amidase [2] = assay: Substrate spectrum of L-carnitine amidase; assay type: biochemical, strain DSM 6230; settings: substrate 50 mM; 30° C.; 100 mM potassium phosphate buffer pH 8
Description: The enzyme test was carried out at 30° C. in 100 mM potassium phosphate buffer pH 8. The substrate concentration was 50 mM.

L-carnitine amidase [3] = assay: Test for the induction of L-carnitine amidase; assay type: cell-based, strain DSM 6230; settings: for Activity (mU/mg) / Activity (mU/ml): 5 g/l of the substance as inductor, 36 h, L-carnitine amide as substrate; for Induction of L-carnitine amidase (in words): strain DSM 6230
Description: (§1) In this test, various substances were examined for their induction action. At the same time, the growth on these compounds was followed. The medium used was a minimum medium with 1.0 g/l instead of 0.5 g/l yeast extract, to which 5 g/l of the substance to be tested were added in each instance. The culture without inductor contained 5 g/l yeast extract. All tests were carried out with 20 ml shaking cultures which were incubated 36 h at 30° C. and 120 rpms in a rotating [round]shaking machine. These cultures were inoculated with 1% of an initial culture of strain DSM 6230. L-carnitine amide was used as substrate for the enzyme test.
(§2) At the same time, the growth of the bacteria was followed in these carnitine amide concentrations. The culture conditions corresponded to those in example 3.

strain DSM 6230 = assay: Growth of strain DSM 6230 on the test substances (OD660); assay type: cell-based; settings: for OD660: 5 g/l of the substance in minimum medium with 1.0 g/l yeast extract, 36 h, 30° C.; for Growth of the strain on the substance (in words): strain DSM 6230
Description: 1367 strains were isolated during the screening program. These strains were incubated in 100 ml Erlenmeyer flasks containing 20 ml of the particular enrichment medium in a rotary agitator at 30° C. and 120 rpms. The optical density at 660 nm was taken as an indication for the cell growth.
as §1, §2

[4] = additive 1 mM, 45 min. preincubation at 30° C.
[5] = additive 10 mM, 45 min. preincubation at 30° C.
[6] = carnitine amide concentration 0.5 g/l
[7] = carnitine amide concentration 1.0 g/l
[8] = carnitine amide concentration 2.0 g/l
[9] = carnitine amide concentration 3.0 g/l
[10] = carnitine amide concentration 5.0 g/l
[11] = carnitine amide concentration 10.0 g/l
[12] = carnitine amide concentration 15.0 g/l
[13] = carnitine amide concentration 20.0 g/l
[14] = carnitine amide concentration 25.0 g/l

CCC(CC)(C(=O)O)C(=O)O [Diethyl malonic acid]
Enzyme activity (%) (L-carnitine amidase [1]; [4]): 92% | Enzyme activity (%) (L-carnitine amidase [1]; [5]): 68% | Reduction of the enzyme activity (in words) (L-carnitine amidase [1]; concentration of 10 mM): reduction of the enzyme activity

OCCS [2-mercaptoethanol]
Enzyme activity (%) (L-carnitine amidase [1]; [4]): 100% | Enzyme activity (%) (L-carnitine amidase [1]; [5]): 101%

[Ba+2].[Cl-].[Cl-] [BaCl2]
Enzyme activity (%) (L-carnitine amidase [1]; [4]): 102% | Enzyme activity (%) (L-carnitine amidase [1]; [5]): 105%

Cl.N=C(N)c1ccc(N)cc1 [Para-amino benzamidine hydrochloride]
Enzyme activity (%) (L-carnitine amidase [1]; [4]): 88% | Enzyme activity (%) (L-carnitine amidase [1]; [5]): 99%

CC(C)[C@H](N)C(=O)N[C@@H](Cc1ccccc1)C(N)=O [L-Val-L-Phe-NH2] (H-Val-Phe-NH2)
Rel. activity (%) (L-carnitine amidase [2]): 0%

N[C@@H](CCC(=O)N[C@@H](CS)C(=O)NCC(=O)O)C(=O)O [Red. glutathione]
Enzyme activity (%) (L-carnitine amidase [1]): 97% and 92% | Reduction of the enzyme activity (in words) (L-carnitine amidase [1]): reduction of the enzyme activity

C[N+](C)(C)CCCC(=O)[O-] [butyrobetaine, γ-butyrobetaine]
Activity (mU/mg) (L-carnitine amidase [3]): 566 mU/mg | Activity (mU/ml) (L-carnitine amidase [3]): 963 mU/ml | Induction of L-carnitine amidase (in words) (L-carnitine amidase [3]): induced; also recorded: Inductors; also recorded: induce the enzyme | OD660 (strain DSM 6230): 0.7 | Growth of the strain on the substance (in words) (strain DSM 6230): can not be metabolized or are metabolized very poorly

CN(C)C(=O)Oc1cccc([N+](C)(C)C)c1 [Neostigmine bromide]
Enzyme activity (%) (L-carnitine amidase [1]; [4]): 100% | Enzyme activity (%) (L-carnitine amidase [1]; [5]): 94%

[Ca+2].[Cl-].[Cl-] [CaCl2]
Enzyme activity (%) (L-carnitine amidase [1]; [4]): 103% | Enzyme activity (%) (L-carnitine amidase [1]; [5]): 90%

NCC(=O)NCC(N)=O [Gly-Gly-NH2]
Rel. activity (%) (L-carnitine amidase [2]): 0%

O=C(O)c1cc[c]([Hg][OH])cc1 [Para-hydroxymercuribenzoate]
Enzyme activity (%) (L-carnitine amidase [1]; [4]): 51%

O=C(O)CI [Iodoacetate]
Enzyme activity (%) (L-carnitine amidase [1]): 97% and 72% | Reduction of the enzyme activity (in words) (L-carnitine amidase [1]): reduction of the enzyme activity

[Cl-].[Cl-].[Co+2] [CoCl2]
Enzyme activity (%) (L-carnitine amidase [1]; [4]): 90% | Enzyme activity (%) (L-carnitine amidase [1]; [5]): 76% | Reduction of the enzyme activity (in words) (L-carnitine amidase [1]; concentration of 10 mM): reduction of the enzyme activity

C[N+](C)(C)CC(=O)CC(=O)[O-] [Dehydrocarnitine]
Activity (mU/mg) (L-carnitine amidase [3]): 279 mU/mg | Activity (mU/ml) (L-carnitine amidase [3]): 837 mU/ml | Induction of L-carnitine amidase (in words) (L-carnitine amidase [3]): induced; also recorded: Inductors; also recorded: induce the enzyme | OD660 (strain DSM 6230): 0.8 | Growth of the strain on the substance (in words) (strain DSM 6230): can not be metabolized or are metabolized very poorly

CC[C@H](C)[C@H](N)C(N)=O [L-Ile-NH2]
Rel. activity (%) (L-carnitine amidase [2]): 0%

C[N+](C)(C)C[C@H](O)CC(=O)[O-] [L-carnitine, 3-hydroxy-4-trimethylaminobutyrate]
Induction of L-carnitine amidase (in words) (L-carnitine amidase [3]): induced; also recorded: Inductors

C[N+](C)(C)CC(O)CC(=O)[O-] (racemic) [DL-carnitine]
Activity (mU/mg) (L-carnitine amidase [3]): 1255 mU/mg | Activity (mU/ml) (L-carnitine amidase [3]): 5773 mU/ml | OD660 (strain DSM 6230): 2.5 | Growth of the strain on the substance (in words) (strain DSM 6230): Good growth

[Cl-].[Cl-].[Mg+2] [MgCl2]
Enzyme activity (%) (L-carnitine amidase [1]; [4]): 96% | Enzyme activity (%) (L-carnitine amidase [1]; [5]): 88%

NC(=O)C[C@H](N)C(N)=O [L-Asn-NH2]
Rel. activity (%) (L-carnitine amidase [2]): 0%

CC=O [Acetaldehyde]
Enzyme activity (%) (L-carnitine amidase [1]; [4]): 83% | Enzyme activity (%) (L-carnitine amidase [1]; [5]): 81%

CC(C)CC(=O)C(=O)O [α-ketoisocaproic acid]
Enzyme activity (%) (L-carnitine amidase [1]; [4]): 92% | Enzyme activity (%) (L-carnitine amidase [1]; [5]): 90%

C[N+](C)(C)CC(O)CC#N (racemic) [DL-carnitine nitrile]
Activity (mU/mg) (L-carnitine amidase [3]): 88 mU/mg | Activity (mU/ml) (L-carnitine amidase [3]): 221 mU/ml | OD660 (strain DSM 6230): 0.8

[Cl][Cu][Cl] [CuCl2]
Enzyme activity (%) (L-carnitine amidase [1]; [4]): 70% | Enzyme activity (%) (L-carnitine amidase [1]; [5]): 54%

O=S(=O)(F)Cc1ccccc1 [Phenylmethane sulfonylfluoride (PMSF), Phenylmethane sulfonylfluoride]
Enzyme activity (%) (L-carnitine amidase [1]; [4]): 23% | Enzyme activity (%) (L-carnitine amidase [1]; [5]): 2%

NC(=O)c1cccnc1 [Nicotinamide]
Activity (mU/mg) (L-carnitine amidase [3]): 28 mU/mg | Activity (mU/ml) (L-carnitine amidase [3]): 55 mU/ml | OD660 (strain DSM 6230): 0.7

O=C(O)c1cc(SSc2ccc([N+](=O)[O-])c(C(=O)O)c2)ccc1[N+](=O)[O-] [Dinitrodithiodibenzoic acid]
Enzyme activity (%) (L-carnitine amidase [1]; [4]): 34%

[Cl][Hg][Cl] [HnCl2]
Enzyme activity (%) (L-carnitine amidase [1]; [4]): < 1%

O=C(O)CN(CCN(CC(=O)O)CC(=O)O)CC(=O)O [Titriplex III (EDTA)]
Enzyme activity (%) (L-carnitine amidase [1]): 93% and 73% | Reduction of the enzyme activity (in words) (L-carnitine amidase [1]): reduction of the enzyme activity

CSCC[C@H](N)C(N)=O [L-Met-NH2]
Rel. activity (%) (L-carnitine amidase [2]): 0%

c1cnc2c(c1)ccc1cccnc12 [Phenanthroline]
Enzyme activity (%) (L-carnitine amidase [1]; [4]): 89% | Enzyme activity (%) (L-carnitine amidase [1]; [5]): 82%

NC(=O)[C@H](N)Cc1ccccc1 [D-Phe-NH2]
Rel. activity (%) (L-carnitine amidase [2]): 0%

CC(C)CC(N)C(N)=O (stereo not drawn) [Leu-NH2]
Rel. activity (%) (L-carnitine amidase [2]): 0%

C[N+](C)(C)CC(O)CC(N)=O (racemic) [DL-carnitine amide]
Activity (mU/mg) (L-carnitine amidase [3]): 1673 mU/mg | Activity (mU/ml) (L-carnitine amidase [3]): 8867 mU/ml | amidase activity (U/ml) (L-carnitine amidase [3]; [6]): 0.7 U/ml | amidase activity (U/ml) (L-carnitine amidase [3]; [7]): 2.4 U/ml | amidase activity (U/ml) (L-carnitine amidase [3]; [8]): 6.1 U/ml | amidase activity (U/ml) (L-carnitine amidase [3]; [9]): 7.3 U/ml | amidase activity (U/ml) (L-carnitine amidase [3]; [10]): 8.9 U/ml | amidase activity (U/ml) (L-carnitine amidase [3]; [11]): 8.6 U/ml | amidase activity (U/ml) (L-carnitine amidase [3]; [12]): 7.3 U/ml | amidase activity (U/ml) (L-carnitine amidase [3]; [13]): 7.1 U/ml | amidase activity (U/ml) (L-carnitine amidase [3]; [14]): 6.7 U/ml | OD660 (strain DSM 6230): 2.7 | OD660 nm (strain DSM 6230; [6]): 1.1 | OD660 nm (strain DSM 6230; [7]): 1.3 | OD660 nm (strain DSM 6230; [8]): 1.7 | OD660 nm (strain DSM 6230; [9]): 2.0 | OD660 nm (strain DSM 6230; [10]): 2.8 | OD660 nm (strain DSM 6230; [11]): 3.9 | OD660 nm (strain DSM 6230; [12]): 3.7 | OD660 nm (strain DSM 6230; [13]): 3.6 | OD660 nm (strain DSM 6230; [14]): 3.5 | Growth of the strain on the substance (in words) (strain DSM 6230): Good growth

[Cl][Mn][Cl] [MnCl2]
Enzyme activity (%) (L-carnitine amidase [1]; [4]): 89% | Enzyme activity (%) (L-carnitine amidase [1]; [5]): 76% | Reduction of the enzyme activity (in words) (L-carnitine amidase [1]; concentration of 10 mM): reduction of the enzyme activity

N[C@@H]1CON=C1O [Cycloserine]
Enzyme activity (%) (L-carnitine amidase [1]; [4]): 96% | Enzyme activity (%) (L-carnitine amidase [1]; [5]): 97%

Cc1ccc(S(=O)(=O)N[C@@H](CCCCN)C(=O)CCl)cc1 [Na-tosyl-L-lysyl-chloromethane hydrochloride]
Enzyme activity (%) (L-carnitine amidase [1]; [4]): 84% | Enzyme activity (%) (L-carnitine amidase [1]; [5]): 73% | Reduction of the enzyme activity (in words) (L-carnitine amidase [1]; concentration of 10 mM): reduction of the enzyme activity

CCN1C(=O)C=CC1=O [Ethyl maleinimide]
Enzyme activity (%) (L-carnitine amidase [1]): 99% | Enzyme activity (%) (L-carnitine amidase [1]; [4]): 100%

[Cl][Fe][Cl] [FeCl2]
Enzyme activity (%) (L-carnitine amidase [1]; [4]): 86% | Enzyme activity (%) (L-carnitine amidase [1]; [5]): 57%

O=[N+]([O-])[O-].[Ag+] [AgNO3]
Enzyme activity (%) (L-carnitine amidase [1]; [4]): 65%

CC(C)C[C@@H](N)C(N)=O [D-leucine amide]
Activity (mU/mg) (L-carnitine amidase [3]): 81 mU/mg | Activity (mU/ml) (L-carnitine amidase [3]): 170 mU/ml | OD660 (strain DSM 6230): 0.8

[Cl][Ni][Cl] [NiCl2]
Enzyme activity (%) (L-carnitine amidase [1]; [4]): 80% | Enzyme activity (%) (L-carnitine amidase [1]; [5]): 79%

[F-].[Na+] [NaF]
Enzyme activity (%) (L-carnitine amidase [1]; [4]): 88% | Enzyme activity (%) (L-carnitine amidase [1]; [5]): 78% | Reduction of the enzyme activity (in words) (L-carnitine amidase [1]; concentration of 10 mM): reduction of the enzyme activity

[Cl][Fe]([Cl])[Cl] [FeCl3]
Enzyme activity (%) (L-carnitine amidase [1]; [4]): 87% | Enzyme activity (%) (L-carnitine amidase [1]; [5]): 46%

C[N+](C)(C)CC(=O)[O-] [Glycine betaine]
Activity (mU/mg) (L-carnitine amidase [3]): 33 mU/mg | Activity (mU/ml) (L-carnitine amidase [3]): 183 mU/ml | OD660 (strain DSM 6230): 2.9 | Growth of the strain on the substance (in words) (strain DSM 6230): Good growth

[Cl-].[Cl-].[Zn+2] [ZnCl2]
Enzyme activity (%) (L-carnitine amidase [1]; [4]): 6%

[N-]=[N+]=[N-].[Na+] [NaN3]
Enzyme activity (%) (L-carnitine amidase [1]; [4]): 85% | Enzyme activity (%) (L-carnitine amidase [1]; [5]): 82%
